Source: ChEMBL document CHEMBL3044927, “Novel 4(3H)-quinazolinone analogs: synthesis and anticonvulsant activity” (Med Chem Res, 2013)
Activity calls are given as the source filed them. No cut-off for these calls is given here.

Assays:
Mus musculus [1] = assay: Anticonvulsant activity in Swiss albino Mus musculus (mouse) assessed as protection against PTZ-induced seizure at 1.5 mmol/kg, ip administered 30 min prior to PTZ-challenge measured up to 30 min relative to control; type: functional
Mus musculus [2] = assay: Anticonvulsant activity in Swiss albino Mus musculus (mouse) assessed as protection against maximal electric shock-induced seizure at 1.38 mmol/kg, ip administered 30 min prior to maximal electric shock-challenge measured up to 30 min relative to control; type: functional
Mus musculus [3] = assay: Anticonvulsant activity in Swiss albino Mus musculus (mouse) assessed as protection against picrotoxin-induced seizure at 1.38 mmol/kg, ip administered 30 min prior to picrotoxin-challenge measured up to 30 min relative to control; type: functional
Mus musculus [4] = assay: Anticonvulsant activity in Swiss albino Mus musculus (mouse) assessed as protection against PTZ-induced seizure at 1.38 mmol/kg, ip administered 30 min prior to PTZ-challenge measured up to 30 min relative to control; type: functional
Mus musculus [5] = assay: Anticonvulsant activity in Swiss albino Mus musculus (mouse) assessed as protection against bicuculline-induced seizure at 1.38 mmol/kg, ip administered 30 min prior to bicuculline-challenge measured up to 30 min relative to control; type: functional
[6] = Toxicity against i.p. dosed Swiss albino Mus musculus (mouse) by Sperman-Karber method; type: organism-based; settings: in vivo, ip
Mus musculus [7] = assay: Anticonvulsant activity in Swiss albino Mus musculus (mouse) assessed as protection against PTZ-induced seizure at 0.75 mmol/kg, ip administered 30 min prior to PTZ-challenge measured up to 30 min relative to control; type: functional
[8] = Therapeutic index, ratio of LD50 to ED50 in Swiss albino Mus musculus (mouse); type: organism-based; settings: in vivo, read-out: Ratio LD50/ED50
Mus musculus [9] = assay: Anticonvulsant activity in Swiss albino Mus musculus (mouse) assessed as protection against bicuculline-induced seizure at 1.5 mmol/kg, ip administered 30 min prior to bicuculline-challenge measured up to 30 min relative to control; type: functional
Mus musculus [10] = assay: Anticonvulsant activity in Swiss albino Mus musculus (mouse) assessed as protection against maximal electric shock-induced seizure at 0.37 mmol/kg, i.p. administered 30 min prior to maximal electric shock-challenge measured up to 30 min relative to control; type: functional
Mus musculus [11] = assay: Neurotoxicity against Swiss albino Mus musculus (mouse) at 0.37 mmol/kg, ip measured after 15 to 25 min by chimney test; type: toxicity, organism-based; settings: in vivo
Mus musculus [12] = assay: Anticonvulsant activity in Swiss albino Mus musculus (mouse) assessed as protection against PTZ-induced seizure at 0.37 mmol/kg, ip administered 30 min prior to PTZ-challenge measured up to 30 min relative to control; type: functional
Mus musculus [13] = assay: Anticonvulsant activity in Swiss albino Mus musculus (mouse) assessed as protection against picrotoxin-induced seizure at 0.37 mmol/kg, i.p. administered 30 min prior to picrotoxin-challenge measured up to 30 min relative to control; type: functional
Mus musculus [14] = assay: Anticonvulsant activity in Swiss albino Mus musculus (mouse) assessed as protection against bicuculline-induced seizure at 0.75 mmol/kg, i.p. administered 30 min prior to bicuculline-challenge measured up to 30 min relative to control; type: functional
Mus musculus [15] = assay: Anticonvulsant activity in Swiss albino Mus musculus (mouse) assessed as protection against maximal electric shock-induced seizure at 1.5 mmol/kg, ip administered 30 min prior to maximal electric shock-challenge measured up to 30 min relative to control; type: functional
Mus musculus [16] = assay: Neurotoxicity against Swiss albino Mus musculus (mouse) at 0.75 mmol/kg, ip measured after 15 to 25 min by chimney test; type: toxicity, organism-based; settings: in vivo
Mus musculus [17] = assay: Neurotoxicity against Swiss albino Mus musculus (mouse) at 0.18 mmol/kg, ip measured after 15 to 25 min by chimney test; type: toxicity, organism-based; settings: in vivo
Mus musculus [18] = assay: Anticonvulsant activity in Swiss albino Mus musculus (mouse) assessed as protection against bicuculline-induced seizure at 0.37 mmol/kg, i.p. administered 30 min prior to bicuculline-challenge measured up to 30 min relative to control; type: functional
Mus musculus [19] = assay: Anticonvulsant activity in Swiss albino Mus musculus (mouse) assessed as protection against maximal electric shock-induced seizure at 0.18 mmol/kg, i.p. administered 30 min prior to maximal electric shock-challenge measured up to 30 min relative to control; type: functional
Mus musculus [20] = assay: Anticonvulsant activity in Swiss albino Mus musculus (mouse) assessed as protection against bicuculline-induced seizure at 0.18 mmol/kg, i.p. administered 30 min prior to bicuculline-challenge measured up to 30 min relative to control; type: functional
[21] = Neurotoxicity against ip dosed Swiss albino Mus musculus (mouse) measured after 15 to 25 min by chimney test; type: toxicity, organism-based; settings: in vivo
Mus musculus [22] = assay: Neurotoxicity against Swiss albino Mus musculus (mouse) at 1.5 mmol/kg, ip measured after 15 to 25 min by chimney test; type: toxicity, organism-based; settings: in vivo
Mus musculus [23] = assay: Anticonvulsant activity in Swiss albino Mus musculus (mouse) assessed as protection against PTZ-induced seizure at 0.18 mmol/kg, ip administered 30 min prior to PTZ-challenge measured up to 30 min relative to control; type: functional
Mus musculus [24] = species on record: Mus musculus; assay: Protective index, ratio of TD50 for to ED50 in Swiss albino Mus musculus (mouse)
Mus musculus [25] = assay: Anticonvulsant activity in Swiss albino Mus musculus (mouse) assessed as protection against maximal electric shock-induced seizure at 0.75 mmol/kg, i.p. administered 30 min prior to maximal electric shock-challenge measured up to 30 min relative to control; type: functional
Mus musculus [26] = assay: Anticonvulsant activity in ip dosed Swiss albino Mus musculus (mouse) assessed as protection against PTZ-induced seizure administered 30 min prior to PTZ-challenge measured up to 30 min; type: functional
[27] = Toxicity against Swiss albino Mus musculus (mouse) assessed as mortality at 1.5 mmol/kg, ip; type: organism-based; settings: in vivo, read-out: Activity
Mus musculus [28] = assay: Anticonvulsant activity in Swiss albino Mus musculus (mouse) assessed as protection against picrotoxin-induced seizure at 0.75 mmol/kg, i.p. administered 30 min prior to picrotoxin-challenge measured up to 30 min relative to control; type: functional
Mus musculus [29] = assay: Anticonvulsant activity in Swiss albino Mus musculus (mouse) assessed as protection against picrotoxin-induced seizure at 0.18 mmol/kg, i.p. administered 30 min prior to picrotoxin-challenge measured up to 30 min relative to control; type: functional
Mus musculus [30] = species on record: Mus musculus; assay: Ratio of sodium valporate ED50 to compound ED50 in Swiss albino Mus musculus (mouse) PTZ-seizure model; type: functional
Mus musculus [31] = assay: Anticonvulsant activity in Swiss albino Mus musculus (mouse) assessed as protection against picrotoxin-induced seizure at 1.5 mmol/kg, ip administered 30 min prior to picrotoxin-challenge measured up to 30 min relative to control; type: functional

O=C(COc1nc(-c2cccs2)nc2ccc(I)cc12)NN1C(=O)c2c(Cl)c(Cl)c(Cl)c(Cl)c2C1=O
Activity (Mus musculus [1]): 30%

NNc1nc2ccc([N+](=O)[O-])cc2c(=O)n1Cc1ccccc1
Activity (Mus musculus [1]): inactive

O=C1c2cccc3cccc(c23)C(=O)N1n1c(-c2cccs2)nc2ccc(I)cc2c1=O
Activity (Mus musculus [1]): inactive

Cc1ccc2nc(SCC(=O)NN3C(=O)c4ccccc4C3=O)n(-c3ccccc3)c(=O)c2c1
Activity (Mus musculus [1]): inactive

Cc1ccc2nc(SCC(=O)NN3C(=O)c4c(Br)c(Br)c(Br)c(Br)c4C3=O)n(Cc3ccccc3)c(=O)c2c1
Activity (Mus musculus [1]): inactive

O=C1c2cccc3cccc(c23)C(=O)N1Nc1nc2ccc([N+](=O)[O-])cc2c(=O)n1Cc1ccccc1
Activity (Mus musculus [1]): 30%

Cc1ccc2nc(S)n(Cc3ccccc3)c(=O)c2c1
Activity (Mus musculus [1]): inactive

CCCC(CCC)C(=O)[O-].[Na+] [VALPROATE SODIUM]
Activity (Mus musculus [2]): 100% | Activity (Mus musculus [3]): 100% | Activity (Mus musculus [4]): 100% | Activity (Mus musculus [5]): 100%

O=C1c2c(Br)c(Br)c(Br)c(Br)c2C(=O)N1n1c(-c2cccs2)nc2ccc(I)cc2c1=O
Activity (Mus musculus [1]): 30%

NNC(=O)COc1nc(-c2cccs2)nc2ccc(I)cc12
Activity (Mus musculus [1]): 30%

Cc1ccc2nc(SCC(=O)NN3C(=O)c4c(Cl)c(Cl)c(Cl)c(Cl)c4C3=O)n(-c3ccccc3)c(=O)c2c1
LD50 [6]: 1290 mg/kg | Activity (Mus musculus [7]): 50% | selectivity ratio [8]: 2.82 | Activity (Mus musculus [1]): 70% | Activity (Mus musculus [9]): 100% | Activity (Mus musculus [10]): 0% | Activity (Mus musculus [11]): 0% | Activity (Mus musculus [12]): 30% | Activity (Mus musculus [13]): 20% | Activity (Mus musculus [14]): 70% | Activity (Mus musculus [15]): 70% | Activity (Mus musculus [16]): 30% | Activity (Mus musculus [17]): 0% | Activity (Mus musculus [18]): 10% | Activity (Mus musculus [19]): 0% | Activity (Mus musculus [20]): 0% | TD50 [21]: 562 mg/kg | Activity (Mus musculus [22]): 100% | Activity (Mus musculus [23]): 0% | Ratio TD50/ED50 (Mus musculus [24]): 1.22 | Activity (Mus musculus [25]): 10% | ED50 (Mus musculus [26]): 457 mg/kg

O=C(COc1nc(-c2cccs2)nc2ccc(I)cc12)NN1C(=O)c2cccc3cccc(c23)C1=O
Activity (Mus musculus [1]): inactive

Cn1c(-c2cccs2)nc2ccc(I)cc2c1=O
Activity (Mus musculus [1]): 100% | Activity (Mus musculus [9]): 100% | Activity (Mus musculus [15]): 0%

CCOC(=O)CSc1nc2ccc([N+](=O)[O-])cc2c(=O)n1-c1ccccc1
Activity (Mus musculus [1]): inactive

Cc1ccc2nc(SCC(=O)NN)n(Cc3ccccc3)c(=O)c2c1
Activity (Mus musculus [1]): inactive | mortality [27]: 100%

O=C1c2c(Cl)c(Cl)c(Cl)c(Cl)c2C(=O)N1n1c(-c2cccs2)nc2ccc(I)cc2c1=O
Activity (Mus musculus [1]): inactive

Cc1ccc2nc(SCC(=O)NN3C(=O)c4ccccc4C3=O)n(Cc3ccccc3)c(=O)c2c1
Activity (Mus musculus [1]): inactive

Cc1ccc2nc(SCC(=O)NN3C(=O)CCC3=O)n(Cc3ccccc3)c(=O)c2c1
Activity (Mus musculus [1]): 30%

O=C1c2ccccc2C(=O)N1n1c(-c2cccs2)nc2ccc(I)cc2c1=O
LD50 [6]: 1380 mg/kg | Activity (Mus musculus [7]): 70% | selectivity ratio [8]: 5.5 | Activity (Mus musculus [1]): 100% | Activity (Mus musculus [9]): 100% | Activity (Mus musculus [10]): 0% | Activity (Mus musculus [11]): 30% | Activity (Mus musculus [12]): 30% | Activity (Mus musculus [13]): 50% | Activity (Mus musculus [28]): 50% | Activity (Mus musculus [29]): 20% | Activity (Mus musculus [14]): 40% | Activity (Mus musculus [15]): 30% | Activity (Mus musculus [16]): 30% | Activity (Mus musculus [17]): 0% | Activity (Mus musculus [18]): 10% | Activity (Mus musculus [19]): 0% | Activity (Mus musculus [20]): 0% | TD50 [21]: 447 mg/kg | Activity (Mus musculus [22]): 80% | Activity (Mus musculus [23]): 0% | Ratio TD50/ED50 (Mus musculus [24]): 1.78 | Activity (Mus musculus [25]): 0% | Ratio ED50 (Mus musculus [30]): 2 | ED50 (Mus musculus [26]): 251 mg/kg

Cc1ccc2nc(SCC(=O)NN3C(=O)c4c(Br)c(Br)c(Br)c(Br)c4C3=O)n(-c3ccccc3)c(=O)c2c1
Activity (Mus musculus [1]): inactive

Cc1ccc2nc(SCC(=O)NN3C(=O)c4c(Cl)c(Cl)c(Cl)c(Cl)c4C3=O)n(Cc3ccccc3)c(=O)c2c1
Activity (Mus musculus [1]): inactive

Cc1ccc2nc(SCC(=O)NN3C(=O)c4cccc5cccc(c45)C3=O)n(Cc3ccccc3)c(=O)c2c1
Activity (Mus musculus [1]): 70% | Activity (Mus musculus [9]): 100% | Activity (Mus musculus [31]): 80% | Activity (Mus musculus [15]): 30%

CCOC(=O)CSc1nc2ccc([N+](=O)[O-])cc2c(=O)n1Cc1ccccc1
Activity (Mus musculus [1]): inactive

O=c1c2cc([N+](=O)[O-])ccc2nc(S)n1Cc1ccccc1
Activity (Mus musculus [1]): inactive

O=c1[nH]c(-c2cccs2)nc2ccc(I)cc12
Activity (Mus musculus [1]): inactive

Cc1ccc2nc(SCC(=O)NN)n(-c3ccccc3)c(=O)c2c1
Activity (Mus musculus [1]): inactive | mortality [27]: 100%

O=C(Nn1c(-c2cccs2)nc2ccc(I)cc2c1=O)c1ccccc1
Activity (Mus musculus [1]): 100% | Activity (Mus musculus [9]): 100% | Activity (Mus musculus [31]): 80% | Activity (Mus musculus [15]): 0%

NNc1nc2ccc([N+](=O)[O-])cc2c(=O)n1-c1ccccc1
Activity (Mus musculus [1]): 30%

O=C(COc1nc(-c2cccs2)nc2ccc(I)cc12)NN1C(=O)c2c(Br)c(Br)c(Br)c(Br)c2C1=O
Activity (Mus musculus [1]): 30%

O=C(Nc1ccc(I)cc1C(=O)O)c1cccs1
Activity (Mus musculus [1]): inactive

O=c1c2cc([N+](=O)[O-])ccc2nc(S)n1-c1ccccc1
Activity (Mus musculus [1]): 30%

Cc1ccc2nc(S)n(-c3ccccc3)c(=O)c2c1
Activity (Mus musculus [1]): 70% | Activity (Mus musculus [9]): 100% | Activity (Mus musculus [31]): 80% | Activity (Mus musculus [15]): 0%

CCOC(=O)CSc1nc2ccc(C)cc2c(=O)n1Cc1ccccc1
Activity (Mus musculus [1]): inactive

O=c1oc(-c2cccs2)nc2ccc(I)cc12
Activity (Mus musculus [1]): inactive

Cc1ccc2nc(SCC(=O)NN3C(=O)c4cccc5cccc(c45)C3=O)n(-c3ccccc3)c(=O)c2c1
Activity (Mus musculus [1]): inactive

CCOC(=O)CSc1nc2ccc(C)cc2c(=O)n1-c1ccccc1
Activity (Mus musculus [1]): inactive

O=C(COc1nc(-c2cccs2)nc2ccc(I)cc12)NN1C(=O)c2ccccc2C1=O
Activity (Mus musculus [1]): 30%

CCOC(=O)COc1nc(-c2cccs2)nc2ccc(I)cc12
Activity (Mus musculus [1]): 30%
